Data from patent US4990520A, “2-,4- or 5-substituted thiazole derivatives” (American Cyanamid Company, priority 1990, dated 1991).
Structures can show the parent of a compound that is named as a salt.

Experiments:
[1] = molecular target: high affinity agonist conformation of the muscarinic cholinergic receptor; test: [3H]-Cis-methyldioxolane (3H-CD) Binding Assay (High Affinity); settings: rat cerebral cortex, 1.0 nM 3H-CD, 25° C., 120 minutes, pH 7.4
[2] = molecular target: muscarinic cholinergic receptor; test: [3H] Quinuclinyl Benzilate (3H-QNB) Binding Assay; set-up: species or system rat; settings: pH 7.4
SDAT patients = settings: versus anticholinesterase inhibitor physostigmine; cited from earlier work
presynaptic cholinergic = settings: cited from earlier work
postsynaptic cholinergic = settings: cited from earlier work
[3] = rat cerebral cortex, 0.25 nM 3H-QNB, 25° C., 120 minutes
[4] = rat cerebral cortex, 0.25 nM 3H-QNB, 25° C., 120 minutes, hydrochloride

“1-[3-(5-Thiazolyl)-2-propenyl]piperidine” gave an IC50 [1] of 12.6 µM and an IC50 [2, 3] of 164 µM.
With `CN(C)CC#Cc1nccs1` [N,N-Dimethyl-3-(2-thiazolyl)-2-propyn-1-amine] the IC50 [1] was 9.98 µM and the IC50 [2, 3] was 1310 µM.
With `Cl/C(=C/c1nccs1)CN1CCCCC1` [1-[2-Chloro-3-(2-thiazolyl)-2-propenyl]piperidine,(E)] the IC50 [1] was 6.59 µM and the IC50 [2, 3] was 117 µM.
`CN(C)CC#Cc1cncs1` [N,N-Dimethyl-3-(5-thiazolyl)-2-propyn-1-amine, hydrochloride] gave an IC50 [2, 4] of 482 µM.
Compound `C(#Cc1cncs1)CN1CCCC1` [5-[3-(1-Pyrrolidinyl)-1-propynyl] thiazole] [5-[3-(1-Pyrrolidinyl)-1-propynyl]thiazole] has an IC50 [1] of 4.7 µM and an IC50 [2, 3] of 115 µM.
For `COC(=O)C1=CCCN(C)C1` [arecoline], the “improvement when compared to physostigmine” value (SDAT patients) is given as “more-consistent improvement”.
`CN(C)C/C(Cl)=C\c1nccs1` [2-Chloro-N,N-dimethyl-3-(2-thiazolyl)-2-propen-1-amine,(E)] gave an IC50 [1] of 1.07 µM and an IC50 [2, 3] of 222 µM.
Compound `C(#Cc1cncs1)CN1CCCCC1` [1-[3-(5-Thiazolyl)-2-propynyl]piperidine, hydrochloride] has an IC50 [1] of 0.658 µM and an IC50 [2, 3] of 119 µM.
For `C[N+](C)(C)CC#Cc1cncs1` [N,N,N-Trimethyl-3-(5-thiazolyl)-2-propyn-1-aminium iodide], the IC50 [1] was 0.273 µM and the IC50 [2, 3] was 131 µM.
Compound `CN(C)CC#Cc1cscn1` [--N, --N-Dimethyl-3-(4-thiazolyl)-2-propyn-1-amine] [N,N-Dimethyl-3-(4-thiazolyl)-2-propyn-1-amine] has an IC50 [1] of 12.9 µM and an IC50 [2, 3] of 504 µM.
In the case of `C(#Cc1cncs1)CN1CCCC1` [5-[3-(1-Pyrrolidinyl)-1-propynyl]thiazole], the IC50 [1] is reported as 0.245 µM and the IC50 [2, 3] is reported as 73 µM.
With `Cl/C(=C/c1nccs1)CN1CCCC1` [2-[2-Chloro-3-(1-pyrrolidinyl)-1-propenyl]thiazole,(E)] the IC50 [1] was 2.23 µM and the IC50 [2, 3] was 186 µM.
For `C(#Cc1nccs1)CN1CCCCC1` [1-[3-(2-Thiazolyl)-2-propynyl]piperidine], the IC50 [1] was 10.2 µM and the IC50 [2, 3] was 182 µM.
In the case of `CC(=O)N(C)C(C)C#CCN1CCCC1` (stereo not shown) [BM-5, N-methyl-N-(1-methyl-4-pyrrolidino-2-butynyl) acetamide], the presynaptic cholinergic activity (presynaptic cholinergic) is listed as “presynaptic cholinergic antagonist” and the postsynaptic cholinergic activity (postsynaptic cholinergic) is listed as “postsynaptic partial cholinergic agonist”.
For `C(#Cc1cscn1)CN1CCCC1` [4-[3-(1-Pyrrolidinyl)-1-propynyl]thiazole], the IC50 [1] was 3.95 µM and the IC50 [2, 3] was 71 µM.
In the case of `C(#Cc1cscn1)CN1CCCCC1` [1-[3-(4-Thiazolyl)-2-propynyl]piperidine], the IC50 [1] is reported as 28.1 µM and the IC50 [2, 3] is reported as 124 µM.
Work on `CN(C)CC#Cc1cscn1` [--N, --N-Dimethyl-3-(4-thiazoyl)-2-propyn-1-amine] [N,N-Dimethyl-3-(4-thiazoyl)-2-propyn-1-amine] yielded an IC50 [1] of 19 µM and an IC50 [2, 3] of 381 µM.
In the case of `C[N+](C)(C)CC#Cc1nccs1` [N,N,N-Trimethyl-3-(2-thiazolyl)-2-propyn-1-aminium iodide], the IC50 [1] is reported as 0.673 µM and the IC50 [2] is reported as 123 µM.
Work on `C(#Cc1cscn1)CN1CCCCC1` [1-[3-(4-Thiazolyl)-2-propynyl]piperidine, hydrochloride] yielded an IC50 ([1]; hydrochloride) of 14 µM and an IC50 [2, 4] of 114 µM.
In the case of `C(#Cc1nccs1)CN1CCCC1` [2-[3-(1-Pyrrolidinyl)-1-propynyl]thiazole], the IC50 [1] is reported as 1.43 µM and the IC50 [2, 3] is reported as 44 µM.
For `Br/C(=C/c1nccs1)CN1CCCC1` [2-[2-Bromo-3-(1-pyrrolidinyl)-1-propenyl]thiazole,(E)], the IC50 [2, 3] was 90 µM.
Compound `CN(C)CC#Cc1cncs1` [N,N-Dimethyl-3-(5-thiazolyl)-2-propyn-1-amine] has an IC50 [1] of 3.38 µM and an IC50 [2, 3] of 765 µM.
`C[N+](C)(C)CC#Cc1cscn1` [N,N,N-Trimethyl-3-(4-thiazolyl)-2-propyn-1-aminium, iodide] showed an IC50 [1] of 1.46 µM and an IC50 [2] of 119 µM.
